From publication PMC10107299, “Neutralizing the Impact of the Virulence Factor LecA from Pseudomonas aeruginosa on Human Cells with New Glycomimetic Inhibitors” (Angewandte Chemie (International Ed. in English), 2023)
Read-outs that look alike come from different tables or passages of the source.

Experiments:
LecA [1] = biological target: T1, LecA (Pseudomonas aeruginosa, UniProt Q05097); assay: Direct binding to immobilized LecA by surface plasmon resonance (SPR); conditions: for Relative potency r.p. (SPR): compared to respective monovalent compound in each series; for kon: SPR single-cycle kinetics, 25 °C, N=3 (I1 N=1)
T1 construct: made in house
Experimental: K d values were oscillating with the number of methylene units present in the linker, presumably linked to the zig‐zag geometry of the hydrocarbon chain.
Expression and purification of LecA as well as competitive binding by fluorescence polarization was performed as described by Joachim et al..[9] […]
Surface plasmon resonance experiments were performed on a BIACORE X100 instrument (GE Healthcare) at 25 °C as described by Zahorska et. al..[8] Averages and standard deviations were calculated from three independent experiments. […]
Figure S3: SPR of divalent LecA ligands from benzene series. Sensorgrams obtained from SPR single-cycle kinetics experiments. Five different concentrations of each compound (0, 10, 50, 100, 200 nM) were sequentially injected to obtain the experimental sensorgrams (blue lines), which were then fitted by a 1:1 model (orange) on BIACORE evaluation software. […]
Figure S4: SPR of divalent LecA ligands from pyridine and sulfonated series. Sensorgrams obtained from SPR single-cycle kinetics experiments. Five different concentrations of each compound (0, 10, 50, 100, 200 nM) were sequentially injected to obtain the experimental sensorgrams (blue lines), which were then fitted by a 1:1 model (orange) on BIACORE evaluation software.
(also on this page, place not known: Response (RU)0 Response (RU)0 Response (RU) Response (RU) Response (RU) Response (RU) 030060090012001500) […]

LecA [2] = biological target: T1, LecA; assay: Competitive binding assay based on fluorescence polarization
Experimental: All synthesized galactosides were then evaluated for LecA inhibition using a competitive binding assay based on fluorescence polarization (Figure S1).[24]
Expression and purification of LecA as well as competitive binding by fluorescence polarization was performed as described by Joachim et al..[9] The assay was performed in TBS/Ca2+ buffer (20 mM Tris, 137 mM NaCl, 2.6 mM KCl at pH 7.4 supplemented with 1 mM CaCl2) in presence of 25% DMSO. Averages and standard deviations were calculated from at least three independent experiments. […]
RR OR In h i b i to r [µ M ]
R R In h i b i to r [µ M ] […]
R In h i b i to r [µ M ] 30 L2
30 F2 40 K2 In h i b i to r [µ M ] […]
In h i b i to r [µ M ] In h i b i to r [µ M ]
Figure S1: Evaluation of amide divalent LecA ligands in a competitive binding assay based on fluorescence […]
representative experiment is shown or each series. Averages and standard deviations from at least three independent titrations of triplicates each.
[…] Fluorescence polarization [mP] -1 0 1 2 3 0 1001010 Me-α-Gal pNO2-Ph-β-Gal 1000 Inhibitor [µM] Fluorescence polarization [mP])

T1 sequence (Q05097 whole entry): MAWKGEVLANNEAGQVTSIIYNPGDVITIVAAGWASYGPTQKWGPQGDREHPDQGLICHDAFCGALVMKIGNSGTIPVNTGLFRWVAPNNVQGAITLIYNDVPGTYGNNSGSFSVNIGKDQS

| SMILES | Kd (LecA [1]) [µM] | Relative potency r.p. (SPR) (LecA [1]) | IC50 (LecA [2]) [µM] | koff (LecA [1]) [s⁻¹] | kon (LecA [1]) | IC50 (LecA [2]; TBS/Ca2+ buffer, 25% DMSO, divalent ligands at lower assay limit, read-out: IC50 (LecA competitive binding, fluorescence polarization)) [µM] |
| --- | --- | --- | --- | --- | --- | --- |
| COc1ccc(NC(=O)/C=C/c2ccc(O[C@@H]3O[C@H](CO)[C@H](O)[C@H](O)[C@H]3O)cc2)cc1 [Compound A1] | 5.21 ± 0.6 | 1 | 18.8 ± 6.6 |  |  |  |
| COc1ccc(NC(=O)CCc2ccc(O[C@@H]3O[C@H](CO)[C@H](O)[C@H](O)[C@H]3O)cc2)cc1 [Compound A2] | 5.38 ± 0.09 | 1 | 18.9 ± 5.5 |  |  |  |
| O=C(/C=C/c1ccc(O[C@@H]2O[C@H](CO)[C@H](O)[C@H](O)[C@H]2O)cc1)Nc1ccc(Oc2ccc(NC(=O)/C=C/c3ccc(O[C@@H]4O[C@H](CO)[C@H](O)[C@H](O)[C@H]4O)cc3)cc2)cc1 [Compound B1] | 0.0673 ± 0.0094 | 77 | 6.6 ± 1.5 | 0.00596 ± 0.00206 | 89 ± 29 x10^3/Ms |  |
| O=C(CCc1ccc(O[C@@H]2O[C@H](CO)[C@H](O)[C@H](O)[C@H]2O)cc1)Nc1ccc(Oc2ccc(NC(=O)CCc3ccc(O[C@@H]4O[C@H](CO)[C@H](O)[C@H](O)[C@H]4O)cc3)cc2)cc1 [Compound B2] | 0.0221 ± 0.0003 | 244 | 3.6 ± 1.3 | 0.00349 ± 8e-05 | 158 ± 5.7 x10^3/Ms |  |
| O=C(/C=C/c1ccc(O[C@@H]2O[C@H](CO)[C@H](O)[C@H](O)[C@H]2O)cc1)Nc1ccc(OCOc2ccc(NC(=O)/C=C/c3ccc(O[C@@H]4O[C@H](CO)[C@H](O)[C@H](O)[C@H]4O)cc3)cc2)cc1 [Compound C1] | 0.0377 ± 0.011 | 138 | 4.7 ± 2.6 | 0.00379 ± 0.00089 | 110 ± 52 x10^3/Ms |  |
| O=C(CCc1ccc(O[C@@H]2O[C@H](CO)[C@H](O)[C@H](O)[C@H]2O)cc1)Nc1ccc(OCOc2ccc(NC(=O)CCc3ccc(O[C@@H]4O[C@H](CO)[C@H](O)[C@H](O)[C@H]4O)cc3)cc2)cc1 [Compound C2] | 0.0153 ± 0.0006 | 352 | 4.2 ± 1.7 | 0.00462 ± 0.0002 | 303 ± 20 x10^3/Ms |  |
| O=C(/C=C/c1ccc(O[C@@H]2O[C@H](CO)[C@H](O)[C@H](O)[C@H]2O)cc1)Nc1ccc(OCCCOc2ccc(NC(=O)/C=C/c3ccc(O[C@@H]4O[C@H](CO)[C@H](O)[C@H](O)[C@H]4O)cc3)cc2)cc1 [Compound E1] | 0.156 ± 0.038 | 33 | 4.5 ± 1.6 | 0.00251 ± 0.00022 | 16.9 ± 5.2 x10^3/Ms |  |
| O=C(CCc1ccc(O[C@@H]2O[C@H](CO)[C@H](O)[C@H](O)[C@H]2O)cc1)Nc1ccc(OCCCOc2ccc(NC(=O)CCc3ccc(O[C@@H]4O[C@H](CO)[C@H](O)[C@H](O)[C@H]4O)cc3)cc2)cc1 [Compound E2] | 0.0185 ± 0.0015 | 291 | 3.5 ± 1 | 0.00345 ± 0.00013 | 187 ± 13 x10^3/Ms |  |
| O=C(/C=C/c1ccc(O[C@@H]2O[C@H](CO)[C@H](O)[C@H](O)[C@H]2O)cc1)Nc1ccc(OCCCCOc2ccc(NC(=O)/C=C/c3ccc(O[C@@H]4O[C@H](CO)[C@H](O)[C@H](O)[C@H]4O)cc3)cc2)cc1 [Compound F1] | 2.25 ± 0.3 | 2 | 7.9 ± 4.8 | 0.00388 ± 0.00043 | 1.75 ± 0.3 x10^3/Ms |  |
| O=C(CCc1ccc(O[C@@H]2O[C@H](CO)[C@H](O)[C@H](O)[C@H]2O)cc1)Nc1ccc(OCCCCOc2ccc(NC(=O)CCc3ccc(O[C@@H]4O[C@H](CO)[C@H](O)[C@H](O)[C@H]4O)cc3)cc2)cc1 [Compound F2] | 0.0231 ± 0.011 | 233 | 4.4 ± 1.5 | 0.00366 ± 0.00042 | 175 ± 55 x10^3/Ms |  |
| O=C(/C=C/c1ccc(O[C@@H]2O[C@H](CO)[C@H](O)[C@H](O)[C@H]2O)cc1)Nc1ccc(OCCCOc2ccc(NC(=O)/C=C/c3ccc(O[C@@H]4O[C@H](CO)[C@H](O)[C@H](O)[C@H]4O)cc3)cn2)nc1 [Compound I1] | 0.0402 | 74 | 6.6 ± 4 | 0.00227 | 68200 M⁻¹ s⁻¹ |  |
| O=[N+]([O-])c1ccc(O[C@@H]2O[C@H](CO)[C@H](O)[C@H](O)[C@H]2O)cc1 [pNO2-Ph-β-Gal, reference compound] |  |  |  |  |  | 39.8 ± 12 |
